Source: patent US20100093538A1, “Pseudomonas Bacterium” (priority 2008, published 2010)

Legend:
[1] = tested on: R. solani; type: cell-based; settings: bioautography, Si gel scraped into agar plates inoculated with R. solani
[2] = tested on: germinating lettuce seeds; assay: Lettuce seed bioassay of EtOAC extracts of cell-free culture filtrates; settings: IAA at 1 μg/ml

In the case of `CC(=O)c1c(O)cc(O)c(C(C)=O)c1O` [DAPG, 2,4-diacetylphloroglucinol], the Fungal inhibition [1] is reported as “Rhizoctonia”.

`O=C(O)Cc1c[nH]c2ccccc12` [IAA, indole-3-acetic acid] was tested, and the “Effect on germination of lettuce seeds” value [2] was “inhibits the germination of lettuce seeds”.

In the case of `O=[N+]([O-])c1c(Cl)cccc1-c1c[nH]cc1Cl` [PRN, 3-chloro-4-[2′ nitro-3′-chlorophenyl]pyrrole], the Fungal inhibition [1] is reported as “Rhizoctonia”.
